Source: PMC6156078, “Thalidomide promotes degradation of SALL4, a transcription factor implicated in Duane Radial Ray syndrome” (eLife, 2018)

Legend:
[1] = biological target: T1, ZFP91 (Homo sapiens, UniProt Q96JP5+Q96SW2); experiment: TMT proteomics Kelly cells: ZFP91 abundance; conditions: 5 h vs DMSO, thalidomide 10 µM, lenalidomide 5 µM, pomalidomide 1 µM
[2] = biological target: GZF1 (Homo sapiens, UniProt Q96SW2+Q9H116); experiment: TMT proteomics SK-N-DZ cells: GZF1 abundance; conditions: 5 h vs DMSO, pomalidomide 1 µM, lenalidomide 5 µM, CC-220 0.1 µM, dBET57 1 µM
[3] = biological target: ZNF98 (Homo sapiens, UniProt A6NK75+Q96SW2); experiment: TMT proteomics SK-N-DZ cells: ZNF98 abundance; conditions: 5 h vs DMSO, pomalidomide 1 µM, lenalidomide 5 µM, CC-220 0.1 µM, dBET57 1 µM
[4] = biological target: IKZF1 (Homo sapiens, UniProt Q13422+Q96SW2); experiment: TMT proteomics MM1s cells: IKZF1 abundance; conditions: 5 h vs DMSO, thalidomide 10 µM, lenalidomide 5 µM, pomalidomide 1 µM
[5] = biological target: IKZF3 (Homo sapiens, UniProt Q96SW2+Q9UKT9); experiment: TMT proteomics MM1s cells: IKZF3 abundance; conditions: 5 h vs DMSO, thalidomide 10 µM, lenalidomide 5 µM, pomalidomide 1 µM
[6] = biological target: FAM83F (Homo sapiens, UniProt Q8NEG4); experiment: TMT proteomics H9 hESC: FAM83F abundance; format: cell-based; conditions: H9 hES cells, 5 h vs DMSO; thalidomide 10 µM, lenalidomide 5 µM, pomalidomide 1 µM
Excerpt: (§1) We established a mass spectrometry-based workflow (Figure 1—figure supplement 1A) to detect IMiD-induced protein degradation in hESC.
(§2) Proteins were precipitated using methanol/chloroform.

[7] = biological target: DTWD1 (Homo sapiens, UniProt Q8N5C7+Q96SW2); experiment: TMT proteomics H9 hESC: DTWD1 abundance; format: cell-based; conditions: H9 hES cells, 5 h vs DMSO; thalidomide 10 µM, lenalidomide 5 µM, pomalidomide 1 µM
Excerpt: as §1, §2

[8] = test system: ARPP19; experiment: TMT proteomics Kelly cells: ARPP19 abundance; conditions: 5 h vs DMSO, pomalidomide 1 µM
[9] = test system: ILF3; experiment: Rescue proteomics SK-N-DZ cells: ILF3 abundance; conditions: 1 µM pomalidomide, 5 h vs DMSO, rescue experiment (source data 13)
[10] = biological target: T2, RAB28 (Homo sapiens, UniProt P51157); experiment: TMT proteomics MM1s cells: RAB28 abundance; conditions: 5 h vs DMSO, thalidomide 10 µM, lenalidomide 5 µM, pomalidomide 1 µM
[11] = test system: SALL4; experiment: Western blot of SALL4 in CRBN-/- Kelly and HEK293T cells; format: cell-based, human; conditions: increasing concentrations, 24 h
[12] = test system: HIST1H4A; HIST1H4F; HIST1H4D; HIST1H4J; HIST2H4A; HIST2H4B; HIST1H4H; HIST1H4C; HIST4H4; HIST1H4E; HIST1H4I; HIST1H4B; HIST1H4K; HIST1H4L; experiment: Rescue proteomics SK-N-DZ cells: histone H4 abundance; conditions: 1 µM pomalidomide, 5 h vs DMSO, rescue experiment (source data 13)
[13] = test system: IMiD-dependent neo-substrates; experiment: TMT proteomics profiling of IMiD-dependent neo-substrates (hESC, Kelly, SK-N-DZ, MM1s); format: cell-based, human; conditions: for number of substrates identified (rank order): H9 hESC proteomics; for proteins degraded upon treatment (besides SALL4): H9 hESC, 5 h, 5 µM lenalidomide, 1 µM pomalidomide; for substrates robustly degraded (each drug in addition to the preceding one): proteomics across hESC, MM1s, Kelly, SK-N-DZ cells
Excerpt: as §1, §2

[14] = test system: COX5A; experiment: TMT proteomics Kelly cells: COX5A abundance; conditions: 5 h vs DMSO, pomalidomide 1 µM
[15] = test system: TLN2; experiment: Rescue proteomics SK-N-DZ cells: TLN2 abundance; conditions: 1 µM pomalidomide, 5 h vs DMSO, rescue experiment (source data 13)
[16] = typical dose 200–400 mg thalidomide, 25 mg lenalidomide, 2 mg pomalidomide, ref Chen et al., 2017, Hoffmann et al., 2013, Teo et al., 2004, cited from earlier work
[17] = biological target: T3, SALL4 (Homo sapiens, UniProt Q9UJQ4); experiment: Western blot of SALL4 in H9 hESC; format: cell-based; parameters: endogenous in cells; host or cells: Kelly, H9 hESC, SK-N-DZ cells; conditions: increasing doses, 24 h
[18] = biological target: T4, ZBTB39 (Homo sapiens, UniProt O15060+Q96SW2); experiment: TMT proteomics H9 hESC: ZBTB39 abundance; format: cell-based; conditions: H9 hES cells, 5 h vs DMSO; thalidomide 10 µM, lenalidomide 5 µM, pomalidomide 1 µM
Excerpt: as §1, §2

[19] = biological target: T1, ZFP91; experiment: TMT proteomics MM1s cells: ZFP91 abundance; conditions: 5 h vs DMSO, thalidomide 10 µM, lenalidomide 5 µM, pomalidomide 1 µM
[20] = biological target: T3, SALL4; experiment: TMT proteomics Kelly cells: SALL4 abundance; conditions: 5 h vs DMSO, thalidomide 10 µM, lenalidomide 5 µM, pomalidomide 1 µM
[21] = test system: GAP43; experiment: Rescue proteomics SK-N-DZ cells: GAP43 abundance; conditions: 1 µM pomalidomide, 5 h vs DMSO, rescue experiment (source data 13)
[22] = test system: RTN4; experiment: Rescue proteomics SK-N-DZ cells: RTN4 abundance; conditions: 1 µM pomalidomide, 5 h vs DMSO, rescue experiment (source data 13)
[23] = biological target: T5, mmSALL4 (Mus musculus, UniProt Q8BX22); experiment: Western blot of mmSALL4 in mouse embryonic stem cells; format: cell-based; conditions: increasing concentrations, 24 h
T5 construct: endogenous in cells; host or cells: TC1 mouse embryonic stem cells
T5 sequence (Q8BX22 whole entry): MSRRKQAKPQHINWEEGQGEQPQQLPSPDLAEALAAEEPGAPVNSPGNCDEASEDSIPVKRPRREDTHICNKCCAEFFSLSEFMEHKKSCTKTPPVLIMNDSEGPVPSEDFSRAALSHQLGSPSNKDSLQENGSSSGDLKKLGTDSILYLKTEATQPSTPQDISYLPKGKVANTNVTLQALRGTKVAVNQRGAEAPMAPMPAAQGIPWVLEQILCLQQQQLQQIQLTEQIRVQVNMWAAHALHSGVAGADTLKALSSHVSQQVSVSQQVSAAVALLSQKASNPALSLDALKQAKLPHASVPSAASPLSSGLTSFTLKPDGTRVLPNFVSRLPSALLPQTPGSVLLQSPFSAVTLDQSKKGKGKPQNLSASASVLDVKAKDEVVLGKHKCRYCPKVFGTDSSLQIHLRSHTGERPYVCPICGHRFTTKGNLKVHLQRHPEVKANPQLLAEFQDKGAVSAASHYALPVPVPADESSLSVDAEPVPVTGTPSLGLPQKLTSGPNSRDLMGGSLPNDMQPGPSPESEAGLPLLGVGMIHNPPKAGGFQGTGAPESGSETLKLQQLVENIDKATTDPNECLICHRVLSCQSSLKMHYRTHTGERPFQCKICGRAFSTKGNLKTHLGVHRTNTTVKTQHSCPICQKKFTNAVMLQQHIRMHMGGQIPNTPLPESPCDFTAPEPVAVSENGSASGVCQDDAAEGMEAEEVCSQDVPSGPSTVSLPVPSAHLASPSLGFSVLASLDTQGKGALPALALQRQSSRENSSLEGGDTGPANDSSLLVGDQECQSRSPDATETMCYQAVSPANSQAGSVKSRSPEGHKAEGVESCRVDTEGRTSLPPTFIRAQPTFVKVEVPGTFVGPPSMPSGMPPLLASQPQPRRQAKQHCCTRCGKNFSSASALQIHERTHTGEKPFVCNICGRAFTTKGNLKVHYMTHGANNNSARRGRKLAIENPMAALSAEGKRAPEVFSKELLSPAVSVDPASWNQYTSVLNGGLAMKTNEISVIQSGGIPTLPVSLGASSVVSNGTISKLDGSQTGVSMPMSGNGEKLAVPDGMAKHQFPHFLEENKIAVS

[24] = test system: CLIC4; experiment: TMT proteomics Kelly cells: CLIC4 abundance; conditions: 5 h vs DMSO, pomalidomide 1 µM
[25] = biological target: T1, ZFP91; experiment: TMT proteomics SK-N-DZ cells: ZFP91 abundance; conditions: 5 h vs DMSO, pomalidomide 1 µM, lenalidomide 5 µM, CC-220 0.1 µM, dBET57 1 µM
[26] = biological target: T2, RAB28; experiment: TMT proteomics SK-N-DZ cells: RAB28 abundance; conditions: 5 h vs DMSO, pomalidomide 1 µM, lenalidomide 5 µM, CC-220 0.1 µM, dBET57 1 µM
[27] = test system: SQRDL; SQOR; experiment: TMT proteomics MM1s cells: SQRDL abundance; conditions: 5 h vs DMSO, pomalidomide 1 µM
[28] = biological target: hsSALL4ZnF2 / DDB1∆B-CRBN (Homo sapiens, UniProt Q96SW2+Q9UJQ4); experiment: TR-FRET IMiD-dependent binding of SALL4ZnF2 to CRBN; conditions: DDB1∆B-CRBN 200 nM, hsSALL4ZnF2 100 nM
Excerpt: The TR-FRET signal of each data point was extracted by calculating the 520/490 nm ratios.

[29] = biological target: T3, SALL4; experiment: TMT proteomics H9 hESC: SALL4 abundance; format: cell-based; conditions: H9 hES cells, 5 h vs DMSO; thalidomide 10 µM, lenalidomide 5 µM, pomalidomide 1 µM
Excerpt: as §1, §2

[30] = biological target: T3, SALL4; conditions: Kelly cells
[31] = biological target: T6, VRTN (Homo sapiens, UniProt Q9H8Y1); experiment: TMT proteomics H9 hESC: VRTN abundance; format: cell-based; conditions: H9 hES cells, 5 h vs DMSO; thalidomide 10 µM, pomalidomide 1 µM
T6 construct: endogenous in cells; host or cells: H9 hESC
T6 sequence (Q9H8Y1 whole entry): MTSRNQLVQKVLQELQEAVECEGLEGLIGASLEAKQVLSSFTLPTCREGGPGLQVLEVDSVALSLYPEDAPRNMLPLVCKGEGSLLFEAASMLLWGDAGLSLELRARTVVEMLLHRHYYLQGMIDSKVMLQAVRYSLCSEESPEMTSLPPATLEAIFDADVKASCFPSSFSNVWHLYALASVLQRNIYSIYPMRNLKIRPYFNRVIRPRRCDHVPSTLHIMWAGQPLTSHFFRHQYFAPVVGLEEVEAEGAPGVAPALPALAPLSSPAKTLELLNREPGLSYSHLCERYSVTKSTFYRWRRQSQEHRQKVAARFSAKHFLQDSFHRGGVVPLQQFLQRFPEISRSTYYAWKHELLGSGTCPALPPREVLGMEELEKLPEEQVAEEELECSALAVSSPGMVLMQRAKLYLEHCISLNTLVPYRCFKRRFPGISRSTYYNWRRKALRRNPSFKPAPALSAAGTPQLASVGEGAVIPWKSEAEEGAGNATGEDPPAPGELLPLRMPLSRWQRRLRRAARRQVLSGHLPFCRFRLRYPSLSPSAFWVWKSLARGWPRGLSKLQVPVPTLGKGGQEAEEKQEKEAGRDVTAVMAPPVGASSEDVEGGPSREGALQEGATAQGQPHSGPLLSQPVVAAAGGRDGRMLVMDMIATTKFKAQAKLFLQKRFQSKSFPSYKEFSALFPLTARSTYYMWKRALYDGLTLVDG
Excerpt: as §1, §2

[32] = biological target: T3, SALL4; experiment: Western blot of SALL4 in Kelly, SK-N-DZ, HEK293T and H661 cells; conditions: increasing concentrations, 24 h
[33] = biological target: T4, ZBTB39; experiment: TMT proteomics SK-N-DZ cells: ZBTB39 abundance; conditions: 5 h vs DMSO, pomalidomide 1 µM, lenalidomide 5 µM, CC-220 0.1 µM, dBET57 1 µM
[34] = test system: PPA1; experiment: TMT proteomics H9 hESC: PPA1 abundance; format: cell-based, human; conditions: H9 hES cells, 5 h vs DMSO; thalidomide 10 µM, lenalidomide 5 µM
Excerpt: as §1, §2

[35] = test system: DYNC1H1; experiment: TMT proteomics Kelly cells: DYNC1H1 abundance; conditions: 5 h vs DMSO, lenalidomide 5 µM
[36] = test system: HADHA; experiment: TMT proteomics MM1s cells: HADHA abundance; conditions: 5 h vs DMSO, lenalidomide 5 µM
[37] = test system: HNRNPH1; experiment: TMT proteomics H9 hESC: HNRNPH1 abundance; format: cell-based, human; conditions: H9 hES cells, 5 h vs DMSO; lenalidomide 5 µM
Excerpt: as §1, §2

[38] = test system: OGDH; experiment: TMT proteomics MM1s cells: OGDH abundance; conditions: 5 h vs DMSO, lenalidomide 5 µM
[39] = test system: ST14; experiment: TMT proteomics MM1s cells: ST14 abundance; conditions: 5 h vs DMSO, lenalidomide 5 µM

Nc1cccc2c1C(=O)N(C1CCC(=O)NC1=O)C2=O (centres unmarked) [pomalidomide]
logFC ZFP91 [1]: -0.9865 | logFC GZF1 [2]: -0.5859 | logFC ZNF98 [3]: -1.487 | logFC IKZF1 [4]: -2.094 | logFC IKZF3 [5]: -2.635 | logFC FAM83F [6]: -1.309 | logFC DTWD1 [7]: -1.822 | logFC ARPP19 [8]: 0.611 | logFC ILF3 [9]: -0.0757 | logFC RAB28 [10]: -1.819 | SALL4 degradation in CRBN-/- cells [11]: no degradation of SALL4 was observed | logFC HIST1H4A (histone H4 genes) [12]: -0.1522 | number of substrates identified (rank order) [13]: Thal < Len << Pom | proteins degraded upon treatment (besides SALL4) [13]: ZFP91 ([An et al., 2017]) and the largely uncharacterized proteins ZBTB39, FAM83F, WIZ, RAB28, and DTWD1 | substrates robustly degraded (each drug in addition to the preceding one) [13]: ZBTB39, ZFP91, DTWD1, and ZNF653 | logFC COX5A [14]: 0.352 | logFC TLN2 [15]: -0.06109 | plasma half-life (t1/2) [16]: ~ 9 h | Cmax ([16]; read-out: maximum plasma concentration (Cmax)): 50 nM | SALL4 protein levels (western blot) [17]: dose-dependent decrease in protein levels | logFC ZBTB39 [18]: -1.656 | logFC ZFP91 [19]: -1.964 | logFC SALL4 [20]: -1.873 | logFC GAP43 [21]: -0.1693 | logFC RTN4 [22]: -0.1703 | degradation of mmSALL4 in mESC [23]: does not promote degradation of mmSALL4 | logFC CLIC4 [24]: -0.176 | logFC ZFP91 [25]: -1.944 | logFC RAB28 [26]: -1.455 | logFC SQRDL; SQOR [27]: 0.2873 | rank order in binding observed with ZnF2 [28]: Pom >Thal >> Len | logFC SALL4 [29]: -1.645 | earliest time of SALL4 degradation post treatment ([30]; 1 or 5 µM pomalidomide): 4 h | time post washout at which SALL4 recovered to levels close to pre-treatment ([30]; pomalidomide 8 h then washout): 48 h | logFC VRTN [31]: -0.4677 | SALL4 protein levels (western blot) [32]: dose-dependent decrease in SALL4 protein levels | logFC ZBTB39 [33]: -1.448

Nc1cccc2c1CN(C1CCC(=O)NC1=O)C2=O (centres unmarked) [lenalidomide]
logFC PPA1 [34]: -0.1919 | logFC DYNC1H1 [35]: 0.04048 | logFC HADHA [36]: 0.1826 | number of substrates identified (rank order) [13]: Thal < Len << Pom | proteins degraded upon treatment (besides SALL4) [13]: CSNK1A1 | substrates robustly degraded (each drug in addition to the preceding one) [13]: ZNF827, FAM83F, and RAB28 along with the lenalidomide-specific substrate CSNK1A1 | plasma half-life (t1/2) [16]: ~ 3 h | logFC HNRNPH1 [37]: 0.1553 | logFC OGDH [38]: 0.1359 | logFC ST14 [39]: -0.1872
